Experimental data: patent EP0545103A1, “Insecticidal, acaricidal and molluscicidal 1-(substituted) thioalkylpyrroles” (priority 1991, dated 1993)

test system: Spodoptera eridania, 3rd instar larvae, southern armyworm; assay: Southern armyworm 7-day residual test; assay type: in vivo; design: key: 0: no effect; 10-25% kill; 26-35% kill; 36-45% kill; 46-55% kill; 56-65% kill; 66-75% kill; 76-85% kill; 86-99% kill; 9: 100% kill; details: R designates Residual: 7-day residual foliage; rating at 3 days; concentration not given
Protocol: (§1) Test solutions are prepared by dissolving the test compound in a 35% acetone in water mixture to give a concentration of 10,000 ppm. Subsequent dilutions are made with water as needed.
Spodoptera eridania, 3rd instar larvae, southern armyworm, 7-day residual
The limabean leaves treated in the above test are maintained under high intensity lamps in the greenhouse for 7 days. These lamps duplicate the effects of a bright sunny day in June in New Jersey and are kept on for 14 hour day length. After 7 days, the foliage is sampled and assayed as in the above-said test.
(§2) All of the above tests are rated according to the rating scale shown below.

SMILES	ARMYWORM Day 3 R
N#Cc1c(Br)c(Br)n(CSCc2ccccc2)c1Br [Example 40]	0
CN(C)C(=S)SCn1c(Cl)c(Cl)c(C#N)c1-c1ccc(Cl)c(Cl)c1 [Example 32]	0
CN(C)C(=S)SCn1c(Br)c(Br)c(C#N)c1Br [Example 31]	9 (100% kill)
N#Cc1c(Br)c(Br)n(CSC(=N)N)c1Br [Example 20]	6 (66-75% kill)

same assay, conditions: R designates Residual: 7-day residual foliage; rating at 5 days; concentration not given

SMILES	ARMYWORM Day 5 R
CN(C)C(=S)SCn1c(Cl)c(Cl)c(C#N)c1-c1ccc(Cl)c(Cl)c1 [Example 32]	0
CN(C)C(=S)SCn1c(Br)c(Br)c(C#N)c1Br [Example 31]	9 (100% kill)

test system: Heliothis virescens, egg, tobacco budworm; assay: Tobacco budworm egg test, dipped cotton leaf and eggs; assay type: in vivo; design: key: 0: no effect; 10-25% kill; 26-35% kill; 36-45% kill; 46-55% kill; 56-65% kill; 66-75% kill; 76-85% kill; 86-99% kill; 9: 100% kill; details: 100 ppm; mortality rating after 3 days
Protocol: as §1
Heliothis virescens, egg, tobacco budworm
A young cotton leaf about 6-7cm in length is dipped in an agitated test suspension for about 3 seconds. Eggs are collected on a cheesecloth and the cloth is cut into 10-20mm squares, each containing approximately 50-100 eggs which are 6-30 hours old. The egg-containing cheesecloth square is similarly dipped in a test suspension and placed on a treated cotton leaf. The combination is dried in a hood and then placed in an 8 ounce Dixie® cup #2168-ST (240ml volume, 6cm tall, 9.5cm top diameter, 8.0cm bottom diameter) into which a 5cm length of damp dental wick has been placed. The cup is covered with a clear plastic lid and held for 3 days, after which mortality counts are made.
as §2

SMILES	TOBACCO BUDWORM Egg
N#Cc1c(Br)c(Br)n(CSC(=N)N)c1Br [Example 20]	0

same assay, conditions: 300 ppm; mortality rating after 3 days

SMILES	TOBACCO BUDWORM Egg
N#Cc1c(Br)c(Br)n(CSC(=N)N)c1Br [Example 20]	0

same assay, conditions: 1000 ppm; mortality rating after 3 days

SMILES	TOBACCO BUDWORM Egg
CSCn1c(Br)c(Br)c(C#N)c1SC [Example 43]	0
N#Cc1c(Br)c(Br)n(CSCc2ccccc2)c1Br [Example 40]	0
CN(C)C(=S)SCn1c(Cl)c(Cl)c(C#N)c1-c1ccc(Cl)c(Cl)c1 [Example 32]	0
CN(C)C(=S)SCn1c(Br)c(Br)c(C#N)c1Br [Example 31]	0
N#Cc1c(Br)c(Br)n(CSC(=N)N)c1Br [Example 20]	0

test system: Diabrotic undecimpunctata howardi, 3rd instar southern corn rootworm; assay: Southern corn rootworm soil test; assay type: in vivo; design: key: 0: no effect; 10-25% kill; 26-35% kill; 36-45% kill; 46-55% kill; 56-65% kill; 66-75% kill; 76-85% kill; 86-99% kill; 9: 100% kill; details: 50 (ppm as headed), mortality rating after 6 days
Protocol: Diabrotic undecimpunctata howardi, 3rd instar southern corn rootworm
One cc of fine talc is placed in a 30 mL wide-mouth screw-top glass jar. One mL of the appropriate acetone test solution is pipetted onto the talc so as to provide 1.25 and 0.25 mg of active ingredient per jar. The jars are set under a gentle air flow until the acetone is evaporated. The dried talc is loosened, 1 cc of millet seed is added to serve as food for the insects and 25 mL of moist soil is added to each jar. The jar is capped and the contents thoroughly mixed on a Vortex Mixer. Following this, ten 3rd instar rootworms are added to each jar and the jars are loosely capped to allow air exchange for the larvae. The treatments are held for 6 days when mortality counts are made. Missing larvae are presumed dead, since they decompose rapidly and can not be found. The concentrations used in this test correspond approximately to 50 and 10 kg/ha, respectively.
as §2

SMILES	SOUTHERN CORN ROOTWORM
CSCn1c(Br)c(Br)c(C#N)c1SC [Example 43]	0
N#Cc1c(Br)c(Br)n(CSCc2ccccc2)c1Br [Example 40]	0
CN(C)C(=S)SCn1c(Cl)c(Cl)c(C#N)c1-c1ccc(Cl)c(Cl)c1 [Example 32]	0
CN(C)C(=S)SCn1c(Br)c(Br)c(C#N)c1Br [Example 31]	0
N#Cc1c(Br)c(Br)n(CSC(=N)N)c1Br [Example 20]	0

test system: Spodoptera eridania, 3rd instar larvae, southern armyworm; assay: Southern armyworm systemic uptake (stem systemic) test; assay type: in vivo; design: key: 0: no effect; 10-25% kill; 26-35% kill; 36-45% kill; 46-55% kill; 56-65% kill; 66-75% kill; 76-85% kill; 86-99% kill; 9: 100% kill; details: cut stem in emulsion 3 days
Source text: Spodoptera eridania, systemic uptake, 3rd instar larvae, southern armyworm
Subsequent 10-fold dilutions are made with water as needed. Sieva limabean plants, with the primary leaves expanded to a length of 7-8 cm, are cut off at least 3 cm above the soil level to avoid contamination with soil bacteria which will cause decay of the stem during the test. The cut stem is placed in the test emulsion and wrapped with a bit of cotton to hold the stem off the bottom of the bottle and to limit evaporation. The treated stem is thus maintained for 3 days at 27° C to allow the test compound to be taken up into the plant. Following this, one leaf is removed from the plant and placed in a 100 x 10 mm petri dish with 10 southern armyworms as described above. Mortality counts and observations of feeding damage are made 3 and 5 days later.
as §2

SMILES	ARMYWORM Stem Sys
CSCn1c(Br)c(Br)c(C#N)c1SC [Example 43]	0
N#Cc1c(Br)c(Br)n(CSCc2ccccc2)c1Br [Example 40]	0
CN(C)C(=S)SCn1c(Cl)c(Cl)c(C#N)c1-c1ccc(Cl)c(Cl)c1 [Example 32]	0
CN(C)C(=S)SCn1c(Br)c(Br)c(C#N)c1Br [Example 31]	0

test system: Spodoptera eridania, 3rd instar larvae, southern armyworm; assay: Southern armyworm 3rd instar test, dipped limabean leaf; assay type: in vivo; design: key: 0: no effect; 10-25% kill; 26-35% kill; 36-45% kill; 46-55% kill; 56-65% kill; 66-75% kill; 76-85% kill; 86-99% kill; 9: 100% kill; details: 10 ppm; rating at 3 days
Protocol: as §1
Spodoptera eridania, 3rd instar larvae, southern armyworm
A Sieva limabean leaf expanded to 7-8 cm in length is dipped in the test solution with agitation for 3 seconds and allowed to dry in a hood. The leaf is then placed in a 100 x 10 mm petri dish containing a damp filterpaper on the bottom and ten 3rd instar caterpillars. At 3 and 5 days, observations are made of mortality, reduced feeding, or any interference with normal molting.
as §2

SMILES	ARMYWORM Day 3
CSCn1c(Br)c(Br)c(C#N)c1SC [Example 43]	0
N#Cc1c(Br)c(Br)n(CSCc2ccccc2)c1Br [Example 40]	0
CN(C)C(=S)SCn1c(Cl)c(Cl)c(C#N)c1-c1ccc(Cl)c(Cl)c1 [Example 32]	0
CN(C)C(=S)SCn1c(Br)c(Br)c(C#N)c1Br [Example 31]	0
N#Cc1c(Br)c(Br)n(CSC(=N)N)c1Br [Example 20]	0

same assay, conditions: 10 ppm; rating at 5 days

SMILES	ARMYWORM Day 5
CSCn1c(Br)c(Br)c(C#N)c1SC [Example 43]	0
N#Cc1c(Br)c(Br)n(CSCc2ccccc2)c1Br [Example 40]	0
CN(C)C(=S)SCn1c(Cl)c(Cl)c(C#N)c1-c1ccc(Cl)c(Cl)c1 [Example 32]	0
CN(C)C(=S)SCn1c(Br)c(Br)c(C#N)c1Br [Example 31]	0
N#Cc1c(Br)c(Br)n(CSC(=N)N)c1Br [Example 20]	0

same assay, conditions: 100 ppm; rating at 3 days

SMILES	ARMYWORM Day 3
CSCn1c(Br)c(Br)c(C#N)c1SC [Example 43]	0
N#Cc1c(Br)c(Br)n(CSCc2ccccc2)c1Br [Example 40]	0
CN(C)C(=S)SCn1c(Br)c(Br)c(C#N)c1Br [Example 31]	9 (100% kill)
N#Cc1c(Br)c(Br)n(CSC(=N)N)c1Br [Example 20]	9 (100% kill)

same assay, conditions: 100 ppm; rating at 5 days

SMILES	ARMYWORM Day 5
CSCn1c(Br)c(Br)c(C#N)c1SC [Example 43]	0
N#Cc1c(Br)c(Br)n(CSCc2ccccc2)c1Br [Example 40]	0
CN(C)C(=S)SCn1c(Br)c(Br)c(C#N)c1Br [Example 31]	9 (100% kill)
N#Cc1c(Br)c(Br)n(CSC(=N)N)c1Br [Example 20]	9 (100% kill)

same assay, conditions: 1000 ppm; rating at 3 days

SMILES	ARMYWORM Day 3
CSCn1c(Br)c(Br)c(C#N)c1SC [Example 43]	9 (100% kill)
N#Cc1c(Br)c(Br)n(CSCc2ccccc2)c1Br [Example 40]	9 (100% kill)
CN(C)C(=S)SCn1c(Br)c(Br)c(C#N)c1Br [Example 31]	9 (100% kill)
N#Cc1c(Br)c(Br)n(CSC(=N)N)c1Br [Example 20]	9 (100% kill)

same assay, conditions: 1000 ppm; rating at 5 days

SMILES	ARMYWORM Day 5
CSCn1c(Br)c(Br)c(C#N)c1SC [Example 43]	9 (100% kill)
N#Cc1c(Br)c(Br)n(CSCc2ccccc2)c1Br [Example 40]	9 (100% kill)
CN(C)C(=S)SCn1c(Br)c(Br)c(C#N)c1Br [Example 31]	9 (100% kill)
N#Cc1c(Br)c(Br)n(CSC(=N)N)c1Br [Example 20]	9 (100% kill)

test system: Heliothis virescens, 3rd instar tobacco budworm; assay: Tobacco budworm 3rd instar test, dipped cotton cotyledons; assay type: in vivo; design: key: 0: no effect; 10-25% kill; 26-35% kill; 36-45% kill; 46-55% kill; 56-65% kill; 66-75% kill; 76-85% kill; 86-99% kill; 9: 100% kill; details: 10 ppm; mortality rating after 3 days
Protocol: as §1
Heliothis virescens, 3rd instar tobacco budworm
Cotton cotyledons are dipped in the test solution and allowed to dry in a hood. When dry, each is cut into quarters and ten sections are placed individually in 30 mL plastic medicine cups containing a 5-7mm long piece of damp dental wick. One 3rd instar caterpillar is added to each cup and the cup is sealed with MYLAR® film. Treatments are maintained for 3 days before a mortality count and observation of reduction in feeding damage are made.
as §2

SMILES	TOBACCO BUDWORM 3rd Instar
N#Cc1c(Br)c(Br)n(CSC(=N)N)c1Br [Example 20]	0

same assay, conditions: 100 ppm; mortality rating after 3 days

SMILES	TOBACCO BUDWORM 3rd Instar
N#Cc1c(Br)c(Br)n(CSCc2ccccc2)c1Br [Example 40]	0
CN(C)C(=S)SCn1c(Cl)c(Cl)c(C#N)c1-c1ccc(Cl)c(Cl)c1 [Example 32]	0
N#Cc1c(Br)c(Br)n(CSC(=N)N)c1Br [Example 20]	0

same assay, conditions: 1000 ppm; mortality rating after 3 days

SMILES	TOBACCO BUDWORM 3rd Instar
CSCn1c(Br)c(Br)c(C#N)c1SC [Example 43]	0
N#Cc1c(Br)c(Br)n(CSCc2ccccc2)c1Br [Example 40]	0
CN(C)C(=S)SCn1c(Cl)c(Cl)c(C#N)c1-c1ccc(Cl)c(Cl)c1 [Example 32]	0
CN(C)C(=S)SCn1c(Br)c(Br)c(C#N)c1Br [Example 31]	6 (66-75% kill)
N#Cc1c(Br)c(Br)n(CSC(=N)N)c1Br [Example 20]	9 (100% kill)
